Our source for the Winter wheat efficacy and Soybean efficacy values is patent US9814233B2, “Composition comprising a pesticide, a surfactant and an alkoxylate of 2-propyheptylamine” (BASF SE, priority 2011, dated 2017).

The test system of assay [1] is winter wheat (cultivar Cubus). Kind of assay: Greenhouse test of herbicidal activity of glyphosate spray mixtures on winter wheat. The following applies: after 21 days. Format: in vivo. How it is done:
(§1) For the greenhouse tests, winter wheat (cultivar Cubus) and soybean (cultivar Oxford) were sown or potted in loamy sandy soil to a depth of 1-2 cm. When the plants had reached a growth height of 10 to 25 cm (i.e., around 10 to 21 days after sowing), the spray mixtures were applied to the plants in a spraying cabin.
(§2) A concentrated formulation comprising glyphosate isopropylammonium in solution in water comprising the surfactants stated and amine alkoxylate A from Example 1 was diluted with deionized water and applied at a water application rate of 375 l/ha (140 g or 280 g of glyphosate/ha). The temperatures in the experimental period were between 18-35° C. During this time, the experimental plants received optimum watering, with nutrients being supplied via the water used for watering.
(§3) The herbicidal activity was evaluated by awarding scores to the treated plants (four each time) in comparison to the untreated control plants. The evaluation scale ranges from 0% to 100% activity. 100% activity means the complete death at least of those parts of the plant that are above ground.

Assay [2] deals with soybean (cultivar Oxford). Kind of assay: Greenhouse test of herbicidal activity of glyphosate spray mixtures on soybean. The following applies: after 21 days. It counts as in vivo. How it is done:
as §1, §2, §3

[3] abbreviates: 140 g/ha glyphosate, without amine alkoxylate/surfactant.
Where [4] appears, read: 280 g/ha glyphosate, without amine alkoxylate/surfactant.
[5] abbreviates: 140 g/ha glyphosate, amount 300 g/ha.
Where [6] appears, read: 280 g/ha glyphosate, amount 300 g/ha.

In the case of `CC(C)N.O=C(O)CNCP(=O)(O)O` [Without, glyphosate isopropylammonium], the values for the Winter wheat efficacy in assay [1] (setting [3]) and in assay [1] (setting [4]) were 53% and 68%, respectively. The Soybean efficacy in assay [2] (setting [3]) and in assay [2] (setting [4]) was 10% throughout.

Consider “C10-13-alkylbenzenesulfonate, free acid [Surfactant A]”, for which the Winter wheat efficacy in assay [1] (setting [5]) was found to be 84%; in assay [1] (setting [6]) it was 90%. Further, the Soybean efficacy was determined as 64% in assay [2] (setting [5]) and 71% in assay [2] (setting [6]).
